Paper PMC12057336 (Antimicrobial Agents and Chemotherapy, 2025)

Experiments:
[1] = target: T1, human OAT3 (Homo sapiens, UniProt Q8TCC7); assay: Uptake in OAT3-transfected HEK293 cells; conditions: 5 µM; 10 min; 37°C; vs mock cells
T1 sequence (Q8TCC7 1-542): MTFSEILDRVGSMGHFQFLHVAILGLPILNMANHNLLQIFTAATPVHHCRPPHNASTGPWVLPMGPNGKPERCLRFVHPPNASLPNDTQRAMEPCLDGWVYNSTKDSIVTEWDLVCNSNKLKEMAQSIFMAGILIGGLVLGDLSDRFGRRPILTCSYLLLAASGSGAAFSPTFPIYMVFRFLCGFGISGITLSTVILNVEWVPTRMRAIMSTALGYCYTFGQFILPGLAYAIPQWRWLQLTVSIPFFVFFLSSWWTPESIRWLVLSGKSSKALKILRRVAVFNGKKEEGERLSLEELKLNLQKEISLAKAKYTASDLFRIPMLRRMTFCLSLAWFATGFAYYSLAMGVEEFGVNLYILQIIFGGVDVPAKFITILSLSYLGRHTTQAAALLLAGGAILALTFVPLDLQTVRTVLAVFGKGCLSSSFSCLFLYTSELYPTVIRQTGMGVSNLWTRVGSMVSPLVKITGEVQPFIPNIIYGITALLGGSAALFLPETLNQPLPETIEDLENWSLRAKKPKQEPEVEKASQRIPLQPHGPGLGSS
Experimental: OATP1B1-, OATP1B3-, OATP2B1-, NTCP-, OAT1-, and OAT3-transfected HEK293 cells were cultured in DMEM supplemented with 10% FBS, 100 U/mL penicillin-streptomycin at 37°C with 95% relative humidity atmosphere containing 5% CO2. All cells were seeded in 24-well plates at a density of 4 × 10^5 cells/well and cultured for 1–2 days until they reached 80%–90% confluence. Prior to the initiation of uptake studies, the cells were washed twice with HBSS buffer at 37°C. Membrane vesicles were stored at −80°C and thawed at 37°C prior to the initiation of the studies.
All uptake tests were performed in triplicates. The activities of transporter-transfected HEK293 cells were evaluated using relevant positive substrates and inhibitors. E17G (5 µM, OATP1B1 and OATP1B3), ES (2 µM, OATP2B1), ES (5 µM, OAT3), TCA (10 µM, NTCP), and PAH (20 µM, OAT1) were used as substrates of the transporters. The inhibitors for each transporter were rifampicin (200 µM, OATP1B1 and OATP1B3), erlotinib (10 µM, OATP2B1), CsA (20 µM, NTCP), and probenecid (200 µM, OAT1 and OAT3).
The cells were washed three times with ice-cold HBSS buffer. […] The total protein concentration was measured using a BCA Protein Assay Kit. The uptake rates of HEK293-OATP1B1, HEK293-OATP1B3, HEK293-OATP2B1, HEK293-NTCP, HEK293-OAT1, HEK293-OAT3, and mock cells were calculated. […]

[2] = system: OATP1B3; conditions: cited from earlier work

CC(=O)NC[C@H]1CN(c2ccc(N3CCOCC3)c(F)c2)C(=O)O1 [Linezolid]
substrate for OAT3 [1]: not a substrate
inhibitor of OATP1B3 [2]: inhibitor
